Measurements published in patent US20240400521A1, “QUINAZOLINE COMPOUND, COMPOSITION, AND APPLICATION THEREOF” (BEIJING SCITECH-MQ PHARMACEUTICALS LIMITED, priority 2021, published 2024).
Where two headings read alike, the source gives them in different places.

Columns and labels:
HCC-827 cells = experiment: Inhibition of cell proliferation, CTG method, HCC-827; assay type: cell-based; details: Homo sapiens, HCC827, 72 hours
Text: The present application examined the in vitro anti-proliferative activity of the compounds of the present disclosure against in vitro cultured HCC-827, Ba/F3-EGFR-VIII and Ba/F3 EGFR D770_N771insSVD cell lines by CTG method.
Reagents and consumables: RPMI1640 (ThermoFisher, Cat. No. C11875500BT); DMEM (ThermoFisher, C11995500BT); fetal bovine serum (Hyclone, Cat. No. SV30087.03); 0.25% trypsin-EDTA (ThermoFisher, Cat. No. 25200072); penicillin-streptomycin (Hyclone, Cat. No. SV30010); DMSO (Life Science, Cat. No. 0231-500ML); CTG assay kit (Promega, Cat. No. G9243); 96-well plate (Corning, Cat. No. 3599); multifunctional plate reader (Perkin Elmer, Cat. No. Envision)
Cell lines: HCC-827 (from ATCC), Ba/F3-EGFR-VIII and Ba/F3 EGFR D770_N771insSVD (all from KYinno Biotechnology (Beijing) Co., Ltd.); all of the above cells were cultured with RPMI1640 medium containing 10% fetal bovine serum, 100 U/mL penicillin, and 100 μg/mL streptomycin in the culture process, and HCC-827 was cultured with DMEM medium containing 10% fetal bovine serum, 100 U/mL penicillin, and 100 μg/mL streptomycin.
• 1. The assay compound was dissolved with DMSO to form a stock solution and a gradient dilution was performed, followed by dilution with the corresponding medium to obtain a solution with 5-fold working concentration. • 2. Cells in logarithmic growth phase were adjusted to specific cell densities by dilution with culture medium, and 80 μL of cell suspension was added to a 96-well plate, such that plating densities of cells of HCC-827, Ba/F3-EGFR-VIII and Ba/F3 EGFR D770_N771insSVD were all 3000 cells/well. The cells of Ba/F3-EGFR-VIII and Ba/F3 EGFR D770_N771insSVD were used directly in the next step (treatment with compound), whereas the HCC-827 needed to be cultured overnight in a 37° C., 5% carbon dioxide gas incubator to adhere to the wall, and then treated with compounds. • 3. 20 μL of compound solution was added to each well of the 96-well plate that had been inoculated with cells. The highest concentration of the assayed compound was 10 μM, 4-fold serial dilution, a total of 9 concentrations, and duplicate wells. A control group without compound was also set up. • 4. The cells were cultured for another 72 hours, and then cell viability was detected by CTG assay kit. Signal values were read with a multifunctional plate reader (Perkin Elmer). GraphPad Prism software was used to create a dose-response curve and IC50 was calculated.

[1] = Pharmacokinetics in SD rats after single oral and intravenous administration; assay type: in vivo; details: rat; for concentration at 0 hr: time point 0 hr; for concentration at 0.25 hr: time point 0.25 hr; for concentration at 0.5 hr: time point 0.5 hr; for concentration at 1 hr: time point 1 hr; for concentration at 2 hr: time point 2 hr; for concentration at 4 hr: time point 4 hr; for concentration at 7 hr: time point 7 hr
Procedure: (§1) In this assay, the pharmacokinetic characteristics and ability to penetrate the blood-brain barrier of the compounds of the present application were assayed after administration of some of the compounds of the present application to SD rats by single oral administration and intravenous injection.
(§2) • 1. Intravenous (IV) injection group: an appropriate amount of the assay compound was weighed, and completely dissolved in an appropriate volume of vehicle (DMSO/Solutol/H2O=5/10/85 V/V/V with 2 times mole of HCl). The mixture was stirred, vortexed and/or sonicated. Once a solution was obtained, the vehicle was gradually added to a final volume to reach the target concentration. The solution was vortexed, and sonicated to obtain a homogeneous solution. The solution was filtered through a 0.22 μm PVDF membrane. • 2. Oral (PO) group: an appropriate amount of the assay compound was weighed, and completely dissolved in an appropriate volume of vehicle (DMSO/Solutol/H2O=5/10/85 V/V/V with 2 times mole of HCl). The mixture was stirred, vortexed and/or sonicated. Once a solution was obtained, the vehicle was gradually added to a final volume to reach the target concentration. The solution was vortexed, and sonicated to obtain a homogeneous solution. (iii) Administration and Sampling of Rats
(§3) Meanwhile, the IV group was not fasted and the PO group was fasted overnight (>12 hrs) and given food 2 hrs after drug administration. All animals had free access to water. The dosing regimen and pharmacokinetic sampling regimen are given in Table 6 and Table 7 below, respectively.
(§4) Rats were administered according to the above regimen, and blood and brain tissue samples were collected and processed at predetermined time points (collection and processing were performed according to conventional methods in the art).
(§5) Brains were weighed and homogenized by adding 4-fold homogenizing solution (acetonitrile/water=1/1). Six times volume of acetonitrile was added respectively to the whole blood samples and brain homogenate. The mixture was vortexed for 1 min and then centrifuged at 4° C., 4500 rpm for 15 min. The supernatant was diluted 2-fold with ultra-pure water, and the samples were analyzed by LC/MS.
Pharmacokinetic parameters were calculated using WinNonlin software. The following pharmacokinetic parameters were calculated if appropriate plasma drug concentration-time data were available: CL (clearance); Vd (apparent volume of distribution); T1/2 (elimination half-life time); Cmax (peak concentration); Tmax (time to peak); AUC (area under plasma drug concentration-time curve); MRT (mean retention time); F % (bioavailability).

[2] = Ability to penetrate the blood-brain barrier: brain and whole blood concentration in SD rats; assay type: in vivo; details: rat
Procedure: as §1, §2, §3, §4, §5

[3] = SD, plasma, IV 3 mg/kg, read-out: Plasma drug concentration
[4] = SD, plasma, PO 10 mg/kg, read-out: Plasma drug concentration

COc1c(NC(=O)/C=C/CN(C)C)ccc2ncnc(Nc3cccc(Cl)c3F)c12 [Example 1, (E)-N-(4-((3-chloro-2-fluorophenyl)amino)-5-methoxyquinazolin-6-yl)-4-(dimethylamino)but-2-enamide]
IC50 (HCC-827 cells): ≤ 5 nM
AUC(0-inf) ([1]; SD, plasma, IV 3 mg/kg): 724 ± 105 ng·h/mL
AUC(0-t) ([1]; SD, plasma, IV 3 mg/kg): 709 ± 96 ng·h/mL
Vd ([1]; SD, plasma, IV 3 mg/kg): 8.76 ± 0.67 L/kg
half-life ([1]; SD, plasma, IV 3 mg/kg): 1.45 ± 0.09 h
concentration at 0 hr [1, 3]: 0 ng/mL
concentration at 0.083 hr ([1]; SD, plasma, IV 3 mg/kg, time point 0.083 hr, read-out: Plasma drug concentration): 888 ± 106 ng/mL
concentration at 0.25 hr [1, 3]: 494 ± 121 ng/mL
concentration at 0.5 hr [1, 3]: 365 ± 48 ng/mL
concentration at 1 hr [1, 3]: 175 ± 23 ng/mL
concentration at 2 hr [1, 3]: 78.2 ± 28.7 ng/mL
concentration at 4 hr [1, 3]: 18.8 ± 8.7 ng/mL
concentration at 7 hr [1, 3]: 7.05 ± 3.77 ng/mL
AUC(0-inf) ([1]; SD, plasma, PO 10 mg/kg): 1780 ± 178 ng·h/mL
AUC(0-t) ([1]; SD, plasma, PO 10 mg/kg): 1730 ± 170 ng·h/mL
Cmax ([1]; SD, plasma, PO 10 mg/kg): 281 ± 73 ng/mL
Tmax ([1]; SD, plasma, PO 10 mg/kg): 1 h
bioavailability ([1]; SD, plasma, PO 10 mg/kg): 73.6 ± 7.4%
half-life ([1]; SD, plasma, PO 10 mg/kg): 3.17 ± 1.22 h
concentration at 0 hr [1, 4]: 0 ng/mL
concentration at 0.25 hr [1, 4]: 83.2 ± 29.9 ng/mL
concentration at 0.5 hr [1, 4]: 227 ± 58 ng/mL
concentration at 1 hr [1, 4]: 281 ± 73 ng/mL
concentration at 2 hr [1, 4]: 249 ± 74 ng/mL
concentration at 4 hr [1, 4]: 77.7 ± 7.3 ng/mL
concentration at 7 hr [1, 4]: 72.6 ± 25.5 ng/mL
concentration at 24 hr ([1]; SD, plasma, PO 10 mg/kg, time point 24 hr, read-out: Plasma drug concentration): 14.2 ± 19.7 ng/mL
Cl_obs ([1]; IV 3 mg/kg): 70.0 ± 9.5 mL/min/kg
Kp at 2 hours ([2]; SD, brain/blood, PO 10 mg/kg, 2 hours after administration, read-out: Brain/blood ratio): 3.06
concentration at 2 hours ([2]; SD, brain, PO 10 mg/kg, 2 hours after administration, read-out: Brain concentration): 1470 ng/g
concentration at 2 hours ([2]; SD, plasma, PO 10 mg/kg, 2 hours after administration, read-out: Plasma drug concentration): 480 ng/mL
ability to penetrate the blood-brain barrier (in words) [2]: excellent ability to penetrate the blood-brain barrier
